As a reminder, the IC50 is the concentration that gives 50% inhibition. For orientation: inhibition means the change of the read-out against control, counted positive when it falls. A low value points to little suppression. One may read the solubility as the concentration that dissolves in the medium under given conditions. In general, half-life refers to how long it takes for the measured level to halve.

Experimental findings from ChEMBL document CHEMBL1153342 (J Med Chem, 2009) are described below.

Data set [1] concerns the target T1, Serine/threonine-protein kinase pim-1 (Homo sapiens, UniProt P11309). The data set can be described thus: Inhibition of Pim1 in presence of 1 uM ATP.
In data set [2] the target is T2, Serine/threonine-protein kinase pim-2 (Homo sapiens, UniProt Q9P1W9). Briefly: Inhibition of Pim2 in presence of 1 uM ATP.
Data set [3] addresses T2, Serine/threonine-protein kinase pim-2. The data set can be described thus: Inhibition of Pim2.
Data set [4] has as its target Casein kinase II subunit alpha (Homo sapiens) (UniProt P68400). The data set can be described thus: Inhibition of CK2alpha1 at 10 uM.
Data set [5] has as its target Casein kinase II subunit alpha' (Homo sapiens) (UniProt P19784). The data set can be described thus: Inhibition of CK2alpha2 at 10 uM.
Data set [6] concerns the target T1, Serine/threonine-protein kinase pim-1. Briefly: Inhibition of Pim1 after 15 mins by scintillation counting-based competition assay in presence of 100 uM [gamma33P]ATP.
Data set [7] in a line: Permeability from apical to basolateral side of human Caco-2 cells at 50 uM by LC/MS-MS analysis. As to conditions: read-out: permeability. Format: ADME, cell-based. Background: Caco-2 cells form a polarised layer with tight junctions and transporters.
Data set [8] can be described thus: Solubility at pH 7.4 after 48 hrs by HPLC. The format is physicochemical. As to conditions: buffer.
Data set [9] can be described thus: Metabolic stability in human liver microsomes assessed as half life by HPLC. Format: ADME, Microsome.
Data set [10] can be described thus: Permeability from basolateral to apical side of human Caco-2 cells at 50 uM by LC/MS-MS analysis. The format is ADME, cell-based. The conditions noted are these: read-out: permeability.
Data set [11] is described as follows: Solubility at pH 2.0 after 48 hrs by HPLC. The conditions noted are these: buffer. The format is physicochemical.

Take `COCCCNc1cncc(-c2cccc(/C=C/C(=O)O)c2)n1`: the results for the 50% inhibitory concentration (IC50) in data set [1] and in data set [2] were 370 nM and 480 nM, respectively. `O=C(O)/C=C/c1cccc(-c2cncc(N3CCCNCC3)n2)c1` showed an IC50 in data set [3] of 10 nM. On the same count and under the same terms, the figure for `O=C(O)/C=C/c1cccc(-c2cncc(NCC3CCNCC3)n2)c1` is 25 nM.

`CN1CCCN(c2cncc(-c3cccc(/C=C/C(N)=O)c3)n2)CC1`: the inhibition in data set [4] stood at 42%; in data set [5] it was 36%. As to `O=C(O)/C=C/c1cccc(-c2cnccn2)c1`, the IC50 in data set [3] came to 2200 nM. On to `O=C(O)c1ccc(-c2cnc3ccc(NCC4CC4)nn23)cc1`, for which the IC50 in [6] came out at 120 nM.

On to `NCCCCNc1cncc(-c2cccc(/C=C/C(=O)O)c2)n1`, for which the IC50 stood at 33 nM in data set [1] and 22 nM in data set [2]. In the case of `COC(=O)/C=C/c1cccc(-c2cncc(N3CCCN(C)CC3)n2)c1`, the IC50 in [3] was greater than 8000 nM. Besides, the inhibition in data set [4] was 14%; in [5] it was 7%. Turning to `CN1CCCN(c2cccc(-c3cccc(/C=C/C(=O)O)c3)n2)CC1`, the concentration for half-maximal inhibition (IC50) in [1] came to 50 nM; in [3], 46 nM. Regarding `CN1CCCN(c2cncc(-c3cccc(/C=C/C(=O)O)c3)n2)CC1`, the Papp A→B at 50 µM in data set [7] turned out to be 2.73 ×10⁻⁶ cm/s. The solubility at 48 h in data set [8] and in [11] was greater than 2000 µg/mL in each case. Further, the half-life in data set [9] came to 2.65 h. In addition, the Papp B→A at 50 µM in data set [10] was 3.01 ×10⁻⁶ cm/s.

Molecule `NCC1CCN(c2cncc(-c3cccc(/C=C/C(=O)O)c3)n2)CC1` gave an IC50 in [3] of 17 nM.
